Measurements from patent publication US10316348B2, “Diagnostic system and process for rapid bacterial infection diagnosis” (priority 2014, dated 2019).
“And” between values parts separate entries of the source, which are not always exact repeats. Identical values can stand only once.

Experiments:
[1] = system: P. aeruginosa strain PA14 biofilms; assay: Square wave voltammetry of pyocyanin produced by PA14 biofilms in a microfluidic growth chamber during antibiotic exposure; format: cell-based, Pseudomonas aeruginosa
Protocol: P. aeruginosa strain PA14 and m-cherry Escherichia coli strain K12 were used for all antibiotic tests performed. Trypticase soy broth (BD 211768) was used as the nutrient source for all bacteria grown in these tests. Colistin sulfate (Adipogen AG-CN2-0065-G001) was dissolved in trypticase soy broth (TSB) at 1 g/L and used as a stock solution. When not in use, the stock solution was stored at 4° C. Polydimethylsiloxane (Ellsworth Adhesives 184 Sil. Elast. Kit 0.5 kg) was used to prepare all microfluidic devices. Disposable three electrode cells (Zensor TE100) were used for all measurements in this study. The electrochemical cells consist of carbon working and counter electrodes with a Ag/AgCl paste reference electrode. Tubing and luer lock fittings for microfluidic connections were purchased from Amazon Supply (B001GMWZM) and Value Plastic (MTLL230). To prevent bacteria from leaving the microfluidic growth chambers, Minisart RC4 0.2 micron regenerated cellulose luer lock syringe filters (17821K) were attached to the inlets and outlets of the devices via 19 gauge luer lock syringes (NE192PL-25). A syringe pump (Harvard Apparatus Fusion 200 211097) was used to control the flow rate of growth media and antibiotic through the microfluidic chamber. Electrochemical measurements were made using a multipotentiostat (CHI 1040C A2728).
Polydimethylsiloxane (PDMS) wells were fabricated from 9 mm×9 mm tape molds made on glass slides (3M Scotch Tape, tape thickness ≈50 μm) using a standard method. […] Inlets and outlets in the wells were drilled and the resulting microfluidic devices were fabricated by irreversibly bonding PDMS to the disposable electrochemical cells using air plasma (Anatech SP-100, 5-7 s at 100 W). The microfluidic channels were filled with trypticase soy broth (TSB) at a flow rate of 10 μL/min. To facilitate complete filling of the chamber (removal of air bubbles), an empty syringe was attached to the outlet. By pulling and releasing vacuum on the outlet, TSB was pulled through the chamber displacing any air bubbles.
For antibiotic testing, cultures of PA14 and E. coli were grown over night in 3 mL of TSB (concentration approximately […]). After overnight growth, samples were centrifuged for 3 min at 10,000 rpm. The supernatant was discarded and the cultures were reconstituted in 3 mL of fresh TSB. After removing the inlet syringe filter, approximately 24 μL of reconstituted cell culture was loaded into the growth chamber at a flow rate of 10 μL/min. […] After overnight growth, flow at 0.1 μL/min was initiated with either TSB or colistin sulfate in TSB and the electrochemical response was monitored. […]

PA14 [2] = assay: Growth of liquid PA14 cultures plated on cetrimide agar plates containing colistin sulfate; format: cell-based, Pseudomonas aeruginosa
Protocol: FIG. 21 illustrates images of PA14 colonies after 20 hours of growth at 37° C. on cetrimide agar plates mixed with different concentrations of colistin sulfate.
Regarding FIG. 21, liquid cultures of PA14, grown over night in 3 mL of TSB, were plated directly onto cetrimide agar plates containing 0, 4, and 100 mg/L of colistin sulfate. These plates were incubated overnight at 37° C. The plates were then inspected for bacterial growth (FIG. 21).

P. aeruginosa = conditions: literature value, cited from earlier work
PA14 [3] = assay: Regrowth on TSB agar plates of cells taken from PDMS chambers after colistin sulfate exposure; format: cell-based, Pseudomonas aeruginosa; conditions: TSB plate
Protocol: FIG. 12 illustrates PA14 exposed to 100 mg/L and 4 mg/L colistin sulfate for 20 hours within PDMS chambers then spotted onto TSB plates. Photographs of a plate after incubation at 37° C. for A) 4.3 h, B) 6.5 h, and C) 74.3 h (removed from the incubator after 24 h to avoid drying and grown at room temperature (≈23° C.)). Arrows highlight the locations of the first observed PA14 colonies. A vertical line divides the areas on the plate where PA14 exposed to 100 mg/L (left) and 4 mg/L (right) colistin sulfate were spotted.
FIG. 22 illustrates PA14 streaked onto TSB after exposure to 100 mg/L and 4 mg/L colistin for 20 hours within PDMS flow chambers. Photographs show the plate after A) 4.33 h, B) 6.5 h, and C) 74.3 h of incubation. The plate was incubated at 37° C. for the first 24 hours, then grown at room temperature for the remaining time to prevent the agar from drying out.
The qualitative results of the live cell stain are consistent with the culture plate experiments. The live cell concentration in biofilms exposed to 100 mg/L colistin sulfate (FIG. 11B), however, is higher than expected when compared to the reduced rate of colony formation on agar plates (FIG. 12).
Regarding FIG. 22, after exposure to colistin sulpahte at 4 and 100 mg/L flowing at 100 nL/min, the PDMS chambers were peeled from the disposable electrodes. […] Samples were incubated at 37° C., and monitored for growth. […]

PA14 cells = assay: Live cell counts (LIVE/DEAD stain, haemocytometer) of biofilm removed from the device after antibiotic exposure; format: cell-based, Pseudomonas aeruginosa; conditions: PA14 biofilm exposed to 100 mg/L colistin sulfate, compared to 0 and 4 mg/L
Protocol: Cell viability after exposure to colistin sulfate was assessed using a LIVE/DEAD staining kit (EMD Chemicals Millipore 50-231-0606). Stains were prepared per manufacturer's operating procedure. After staining, 10 μL of sample was injected into an INCYTO C-chip disposable hemocytometer (DHC-N01). Cells were imaged using a fluorescence microscope, and the number of PA14 cells that were alive after exposure was determined using IMAGE J (ImageJ, U.S. National Institutes of Health, Bethesda, Md., USA, http://imagej.nih.gov/ij/).
The number of living cells measured after exposure to three different concentrations of colistin sulfate were compared (FIG. 11B). After the biofilm was exposed to antibiotic in the device, the PDMS chambers were peeled off and 100 μL of fresh TSB was spotted on the biofilm and pipetted vigorously to remove material from the surface of the electrode. Removed samples were used to measure live cell counts, performed with Millipore 3P Live/Dead Stain, using a haemocytometer. […] A concentration of approximately 4×10^5 live cells/mL was measured in the biofilms not exposed to colistin sulfate. […] A statistically significant reduction in the number of live PA14 cells was measured for samples exposed to 100 mg/L colistin sulfate compared to cells exposed to 0 and 4 mg/L colistin sulfate. […]

Compound	effect on PYO production (SWV response) ([1]; PA14 exposed to 100 mg/L ampicillin in TSB under flow)	bacterial growth on plate after overnight incubation at 37° C. (PA14 [2]; cetrimide agar containing 4 mg/L colistin sulfate)	bacterial growth on plate after overnight incubation at 37° C. (PA14 [2]; cetrimide agar containing 100 mg/L colistin sulfate)	average response (peak current, PYO production) compared to biofilms exposed to only TSB ([1]; PA14 biofilm exposed to 4 mg/L colistin sulfate, ANOVA)	average percent decrease in the maximum peak current at the end of testing ([1]; PA14 biofilm exposed to 100 mg/L colistin sulfate in TSB, flow 100 nL/min, compared to control cells) [%]	average peak current compared against the control (ANOVA) ([1]; PA14 exposed to 16 and 100 mg/L colistin sulfate, P<0.05)	reported MIC (High MIC) (P. aeruginosa; higher MIC) [µg/mL]	reported MIC (low MIC) (P. aeruginosa; lower MIC) [µg/mL]	incubation time after which growth (visible colonies) was observed (PA14 [3]; cells exposed to 4 mg/L colistin sulfate for 20 hours in chambers, 37° C.)	growth after 6.5 h of incubation (PA14 [3]; cells exposed to 100 mg/L colistin sulfate for 20 hours in chambers)	reduction in the number of living cells (PA14 cells) [×]
CC1(C)S[C@@H]2[C@H](NC(=O)[C@H](N)c3ccccc3)C(=O)N2[C@H]1C(=O)O [ampicillin]	no effect on PYO production	–	–	–	–	–	–	–	–	–	–
colistin sulfate	–	showed growth	showed no colony formation	no significant difference	~82	significantly lower	16	4	4.3 h and 4 h	No growth was observed	~2
